# Source: patent publication US20170191057A1, “RNA EDITING BIOMARKERS FOR DIAGNOSIS, PHARMACOLOGICAL SCREENING AND PROGNOSTICATION IN CANCER” (REGENTS OF THE UNIVERSITY OF CALIFORNIA, priority 2014, published 2017)
# Columns and labels:
# [1] = tested on: RNA editing in APOBEC3D (Sites 1 & 2); experiment: Direct sequencing of CSC-specific RNA editing biomarkers in APOBEC3D after 8-azaadenosine treatment; format: cell-based, human
# Experimental: As proof-of-concept that small molecule inhibitors could block RNA editing activity, CD34^+ cells from a CML blast crisis patient were treated with vehicle or 1 μM 8-azaadenosine (Veliz et al., JACS 2003) for 24 hours and co-cultured on humanized bone marrow stromal cells (SL/M2) for 5 days. […] Thus, RESSq-PCR and RNA editing inhibitors is an allele-specific diagnostic assay that can be used for detection of primate-specific RNA editing events in cancer stem cells.
# For PCR and targeted Sanger sequencing analysis, 1-2 μL of first-strand cDNA templates were prepared for PCR in 25-50 μL reaction volumes using the high-fidelity KOD Hot Start DNA Polymerase kit according to the manufacturer's instructions (EMD Millipore, Temecula, Calif.). “Outer” primers (Additional file 2: Table S2) used for sequencing produce predicted amplicons of approximately 150-250 nucleotides in length, and flank each editing site with approximately 50-100 bp on either side of the editing site to facilitate successful sequencing analysis. […] Sequence chromatograms were analyzed using 4Peaks (by A. Griekspoor and Tom Groothuis) and peak heights calculated using ImageJ (NIH). For RNA editing analysis of sequencing chromatograms, ratios of edited/WT peaks were calculated using the raw peak amplitude of each sequence trace.
# ADAR1 = experiment: qRT-PCR of total ADAR1 levels after 8-azaadenosine treatment; format: cell-based, human; conditions: cord blood, ABM, and blast crisis cells; FIG. 21A
# Experimental: (A) 8-azaadenosine treatment results in reduced total ADAR1 levels by qRT-PCR, and (B) decreased RNA editing in APOBEC3D (Sites 1 & 2) by direct sequencing.
# Cell lines, lentivirus-transduced primary hematopoietic cells, or FACS-purified primary cells were harvested in lysis buffer (Qiagen). RNA was purified using RNeasy extraction kits with a DNase (Qiagen) incubation step to digest any trace genomic DNA present. For RNA extraction from cell line lysates, 1-2×10^6 cells were extracted using RNeasy mini columns, and for primary cells, 5-10×10^4 cells were lysed and extracted using RNeasy micro columns. Genomic DNA was purified from equal numbers of cells lysed separately using the QIAamp DNA Blood Mini Kit (Qiagen) including an RNase A incubation step to digest any RNA present (Qiagen). RNA was stored at −80° C. and gDNA stored at −20° C. Immediately prior to reverse transcription of RNA samples, nucleic acid concentrations were quantified on a NanoDrop 2000 spectrophotometer (Thermo Scientific), and purity was considered acceptable if A260/A280 values were >1.8. […]
smiles,measurement,setting,value
Nc1ncnc2c1nnn2[C@@H]1O[C@H](CO)[C@@H](O)[C@H]1O [8-azaadenosine],edit/wild-type sequence ratios of two CSC-specific RNA editing biomarkers in APOBEC3D,"[1]; CD34+ cells from a CML blast crisis patient, 1 μM for 24 hours vs vehicle, co-cultured on SL/M2 stromal cells for 5 days",reduction
same,RNA editing in APOBEC3D (Sites 1 & 2) by direct sequencing,"[1]; cord blood, ABM, and blast crisis cells, FIG. 21B",decreased
same,total ADAR1 levels by qRT-PCR,ADAR1,reduced
